Results reported in US12233060B2, “Inhibitors of Ataxia-Telangiectasia Mutated and Rad3-related protein kinase (ATR) for use in methods of treating cancer” (THE INSTITUTE OF CANCER RESEARCH: ROYAL CANCER HOSPITAL, priority 2016, dated 2025).

What was measured:
Assay type in all cases: cell-based, human
HCT116 cells = assay: DNA fibre analysis, replication fork speed in HCT116 cells with SS18-SSX1; details: 0.1 μM for two hours
Experimental: FIG. 10. ATR inhibitors elicit replication fork stress in SS tumour cells. […] Error bars represent SEM from triplicate experiments. p values were derived from Student's t tests. B. Western blot illustrating PARP1 cleavage in SYO1 cells exposed to VX970 for 24 hours. C. Western blot illustrating H2AX phosphorylation (γH2AX) in SYO1 cells exposed to VX970 (0.1 μM). D. Confocal microspcopy images illustrating H2AX phosphorylation in SYO1 cells exposed to VX970 (0.1 μM, 24 hours). E. Bar chart depicting data from (D). Error bars represent SEM from 100 images. p values were derived from Student's t tests. F. Replication fork speeds in SYO1 cells exposed to 0.1 μM VX970 for two hours. p value was derived from a Student's t test. G. Replication fork speeds in HCT116 cells exposed to 0.1 μM VX970 for two hours in the presence and absence of ectopic expression of a SS18-SSX1 fusion protein. p values were derived from Student's t tests. Expression of SS18-SSX1 or exposure to VX970 reduced fork speed. Combined SS18-SSX1 expression and VX970 exposure enhanced the reduction in fork speed. H and I. FACS plots from SYO1 cells exposed to VX970.
ATRi induced cytotoxicity in tumour cells derived from carcinomas is often associated with an increase in replication fork stress.

[1] = tested on: HCT116 ARID1A+/+ and ARID1A−/− cells; assay: PARP cleavage western blot; details: 24 hours exposure; camptothecin 1 uM positive control
Experimental: (§1) FIG. 3. In vivo ARID1A/ATR synthetic lethality. A. Schematic of VX-970 therapy experiment in mice bearing established HCT116 ARID1A^+/+ and ARID1A^−/− xenografts. Cells were inoculated subcutaneously into nude mice and tumors allowed to establish for 10 days. Mice were then randomized to treatment regimens of either VX-970 (60 mg/kg, 4× weekly by oral gavage) or vehicle. Mice were then treated for a subsequent 40 days. Tumor volume was monitored twice weekly. B. Relative tumor volume plot from (A) showing efficacy of VX-970 and selectivity for ARID1A^−/− xenografts* p=0.024, ANOVA. C. Schematic of tumor incidence experiment in mice with non-established HCT116 ARID1A^+/+ and ARID1A^−/− xenografts. […] Tumor volume was monitored twice weekly and overall tumour incidence was assessed 40 days later. […] PARP-1, cleaved PARP-1 (85 kDa fragment) and tubulin were detected by western blot. […] Caspase3/7 activity was assessed using Caspase-Glo and total cellular viability was estimated using CellTitre-Glo. Luminescence ratios for Caspase-Glo (i.e. apoptotic cells) and CellTitre-Glo (ie viable cells) was determined for each dose and normalized to DMSO treated samples. *Student's t-test, p<0.05. […]
(§2) FIG. 5. […] The percentage of cells in G2/M was measured by FACS following PI staining. […] A minimum of 50 anaphases were scored in 3 biological replicate experiments. *p=0.023, Student's t-test. […]

[2] = tested on: HCT116 ARID1A+/+ and ARID1A−/− cells; assay: Apoptosis assay (caspase-3/7 activity); details: 24 hours exposure; p<0.05 Student's t-test
Experimental: as §1, §2

## CNCc1ccc(-c2cc(-c3nc(-c4ccc(S(=O)(=O)C(C)C)cc4)cnc3N)on2)cc1 [VX-970, 5-[4-(Isopropylsulfonyl)phenyl]-3-(3-{4-[(methylamino)methyl]phenyl}-1,2-oxazol-5-yl)-2-pyrazinamine]
HCT116 cells
  decrease in replication fork speed with SS18-SSX1 expression plus VX970: enhanced by the addition of VX970
[1]
  PARP-cleavage, ARID1A−/− vs ARID1A+/+: far higher levels of PARP-cleavage
[2]
  caspase-3/7 activation, ARID1A−/− vs ARID1A+/+: higher caspase-3/7 activation
